# Earlier results in patent US20080160065A1 (priority 2006, published 2008).
# Like-named read-outs stand apart in the source and are kept apart here.
# Details: injected intramuscularly
structure (smiles),measurement,setting,value
CCC[C@@H]1C[C@@H](C(=O)N[C@@H]([C@H]2O[C@H](SC)[C@H](O)[C@@H](O)[C@H]2O)[C@H](C)Cl)N(C)C1 [clindamycin],time to peak plasma concentration,adults,2 h
same,time to peak plasma concentration,children,1 h
